Test results from the kinase profiling compilation of Christmann-Franck et al. (2016).

Key:
Test in all cases: KINOMEscan competition binding
Settings in all cases: compound 10.0 µM
LATS2 (human) = LATS2 (human) (UniProt Q9NRM7)
ULK3 (human) = ULK3 (human) (UniProt Q6PHR2)
MET (human) = MET (human) (UniProt P08581)
CDK3 (human) = CDK3 (human) (UniProt Q00526)
PRKCI (human) = PRKCI (human) (UniProt P41743)
GSK3A (human) = GSK3A (human) (UniProt P49840)
CAMK1G (human) = CAMK1G (human) (UniProt Q96NX5)
EPHB3 (human) = EPHB3 (human) (UniProt P54753)
MKNK2 (human) = MKNK2 (human) (UniProt Q9HBH9)
PRKG2 (human) = PRKG2 (human) (UniProt Q13237)
[1] = tested on: KIT (human), P10721 [D816H]
HIPK4 (human) = HIPK4 (human) (UniProt Q8NE63)
PLK3 (human) = PLK3 (human) (UniProt Q9H4B4)
RPS6KA5 KD2 (human) = RPS6KA5 KD2 (human) (UniProt O75582)
[2] = tested on: MET (human), P08581 [M1250T]
SNRK (human) = SNRK (human) (UniProt Q9NRH2)
IRAK1 (human) = IRAK1 (human) (UniProt P51617)
CDKL1 (human) = CDKL1 (human) (UniProt Q00532)
STK32A (human) = STK32A (human) (UniProt Q8WU08)
RET (human) = RET (human) (UniProt P07949)
SGK3 (human) = SGK3 (human) (UniProt Q96BR1)
CHEK1 (human) = CHEK1 (human) (UniProt O14757)
MAP3K6 (human) = MAP3K6 (human) (UniProt O95382)
CAMK2G (human) = CAMK2G (human) (UniProt Q13555)
MAPK7 (human) = MAPK7 (human) (UniProt Q13164)
CSNK1D (human) = CSNK1D (human) (UniProt P48730)
PLK1 (human) = PLK1 (human) (UniProt P53350)
MYLK (human) = MYLK (human) (UniProt Q15746)
CIT (human) = CIT (human) (UniProt O14578)
MYLK2 (human) = MYLK2 (human) (UniProt Q9H1R3)
CPK1 (P.falciparum) = tested on: CPK1 (P.falciparum)
PKN2 (human) = PKN2 (human) (UniProt Q16513)
PKMYT1 (human) = PKMYT1 (human) (UniProt Q99640)
ROS1 (human) = ROS1 (human) (UniProt P08922)
HCK (human) = HCK (human) (UniProt P08631)
LYN (human) = LYN (human) (UniProt P07948)
LIMK1 (human) = LIMK1 (human) (UniProt P53667)
PDGFRA (human) = PDGFRA (human) (UniProt P16234)
STK32B (human) = STK32B (human) (UniProt Q9NY57)
MAP3K5 (human) = MAP3K5 (human) (UniProt Q99683)
FLT4 (human) = FLT4 (human) (UniProt P35916)

Chain of CDKL1 (human) (Q00532 whole entry, looked up): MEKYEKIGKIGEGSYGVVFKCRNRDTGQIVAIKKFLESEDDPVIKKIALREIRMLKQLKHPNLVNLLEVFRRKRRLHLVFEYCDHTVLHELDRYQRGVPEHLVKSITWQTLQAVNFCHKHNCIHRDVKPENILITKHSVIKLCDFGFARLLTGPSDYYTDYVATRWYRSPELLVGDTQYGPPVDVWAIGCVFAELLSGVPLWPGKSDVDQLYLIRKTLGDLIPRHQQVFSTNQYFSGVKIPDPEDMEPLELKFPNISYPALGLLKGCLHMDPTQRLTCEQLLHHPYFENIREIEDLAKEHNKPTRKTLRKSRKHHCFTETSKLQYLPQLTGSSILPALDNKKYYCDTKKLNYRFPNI
Chain of SNRK (human) (Q9NRH2 whole entry, looked up): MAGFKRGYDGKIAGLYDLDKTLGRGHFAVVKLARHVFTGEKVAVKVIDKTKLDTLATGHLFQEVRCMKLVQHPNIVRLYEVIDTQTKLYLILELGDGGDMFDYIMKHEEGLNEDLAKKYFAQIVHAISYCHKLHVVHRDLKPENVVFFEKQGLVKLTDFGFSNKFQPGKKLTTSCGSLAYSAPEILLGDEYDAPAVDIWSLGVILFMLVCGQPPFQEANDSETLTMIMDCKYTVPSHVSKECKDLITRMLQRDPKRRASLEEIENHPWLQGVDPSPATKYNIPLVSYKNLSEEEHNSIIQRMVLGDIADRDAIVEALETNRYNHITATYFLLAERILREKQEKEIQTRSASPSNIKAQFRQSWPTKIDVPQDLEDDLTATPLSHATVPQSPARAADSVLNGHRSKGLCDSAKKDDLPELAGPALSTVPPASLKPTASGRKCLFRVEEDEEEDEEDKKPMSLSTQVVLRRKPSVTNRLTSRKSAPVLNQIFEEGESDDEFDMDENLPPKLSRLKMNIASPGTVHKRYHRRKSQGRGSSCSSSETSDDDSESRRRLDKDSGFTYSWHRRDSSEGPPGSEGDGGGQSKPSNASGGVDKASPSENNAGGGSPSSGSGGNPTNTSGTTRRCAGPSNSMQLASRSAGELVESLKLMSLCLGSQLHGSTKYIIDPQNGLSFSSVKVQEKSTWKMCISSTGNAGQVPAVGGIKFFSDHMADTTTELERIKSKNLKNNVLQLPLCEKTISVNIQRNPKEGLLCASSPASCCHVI
Chain of MKNK2 (human) (Q9HBH9 whole entry, looked up): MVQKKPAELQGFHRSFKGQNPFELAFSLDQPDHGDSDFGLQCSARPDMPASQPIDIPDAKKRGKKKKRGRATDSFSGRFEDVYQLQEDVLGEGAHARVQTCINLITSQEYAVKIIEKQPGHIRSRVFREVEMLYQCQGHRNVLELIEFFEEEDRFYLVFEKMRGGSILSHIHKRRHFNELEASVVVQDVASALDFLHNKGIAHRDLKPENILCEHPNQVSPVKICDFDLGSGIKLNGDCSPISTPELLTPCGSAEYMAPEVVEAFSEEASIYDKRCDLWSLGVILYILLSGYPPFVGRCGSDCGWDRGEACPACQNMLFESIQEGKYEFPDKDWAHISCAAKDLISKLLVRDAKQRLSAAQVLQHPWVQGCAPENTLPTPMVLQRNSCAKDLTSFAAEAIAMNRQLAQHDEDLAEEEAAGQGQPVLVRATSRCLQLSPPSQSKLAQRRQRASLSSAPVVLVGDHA
Chain of CAMK1G (human) (Q96NX5 whole entry, looked up): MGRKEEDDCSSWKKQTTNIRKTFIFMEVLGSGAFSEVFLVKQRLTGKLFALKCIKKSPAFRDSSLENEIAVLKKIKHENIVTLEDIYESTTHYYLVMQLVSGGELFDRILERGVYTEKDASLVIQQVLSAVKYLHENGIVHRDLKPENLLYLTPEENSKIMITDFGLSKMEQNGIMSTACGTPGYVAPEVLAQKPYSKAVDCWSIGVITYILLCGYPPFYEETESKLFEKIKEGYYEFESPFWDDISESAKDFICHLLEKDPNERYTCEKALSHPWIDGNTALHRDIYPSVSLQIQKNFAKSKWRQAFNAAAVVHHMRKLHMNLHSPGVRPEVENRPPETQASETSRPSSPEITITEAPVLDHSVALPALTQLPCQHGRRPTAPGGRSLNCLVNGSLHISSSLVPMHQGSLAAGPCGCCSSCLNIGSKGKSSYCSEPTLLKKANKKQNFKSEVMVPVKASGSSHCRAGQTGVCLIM
Chain of RET (human) (P07949 whole entry, looked up): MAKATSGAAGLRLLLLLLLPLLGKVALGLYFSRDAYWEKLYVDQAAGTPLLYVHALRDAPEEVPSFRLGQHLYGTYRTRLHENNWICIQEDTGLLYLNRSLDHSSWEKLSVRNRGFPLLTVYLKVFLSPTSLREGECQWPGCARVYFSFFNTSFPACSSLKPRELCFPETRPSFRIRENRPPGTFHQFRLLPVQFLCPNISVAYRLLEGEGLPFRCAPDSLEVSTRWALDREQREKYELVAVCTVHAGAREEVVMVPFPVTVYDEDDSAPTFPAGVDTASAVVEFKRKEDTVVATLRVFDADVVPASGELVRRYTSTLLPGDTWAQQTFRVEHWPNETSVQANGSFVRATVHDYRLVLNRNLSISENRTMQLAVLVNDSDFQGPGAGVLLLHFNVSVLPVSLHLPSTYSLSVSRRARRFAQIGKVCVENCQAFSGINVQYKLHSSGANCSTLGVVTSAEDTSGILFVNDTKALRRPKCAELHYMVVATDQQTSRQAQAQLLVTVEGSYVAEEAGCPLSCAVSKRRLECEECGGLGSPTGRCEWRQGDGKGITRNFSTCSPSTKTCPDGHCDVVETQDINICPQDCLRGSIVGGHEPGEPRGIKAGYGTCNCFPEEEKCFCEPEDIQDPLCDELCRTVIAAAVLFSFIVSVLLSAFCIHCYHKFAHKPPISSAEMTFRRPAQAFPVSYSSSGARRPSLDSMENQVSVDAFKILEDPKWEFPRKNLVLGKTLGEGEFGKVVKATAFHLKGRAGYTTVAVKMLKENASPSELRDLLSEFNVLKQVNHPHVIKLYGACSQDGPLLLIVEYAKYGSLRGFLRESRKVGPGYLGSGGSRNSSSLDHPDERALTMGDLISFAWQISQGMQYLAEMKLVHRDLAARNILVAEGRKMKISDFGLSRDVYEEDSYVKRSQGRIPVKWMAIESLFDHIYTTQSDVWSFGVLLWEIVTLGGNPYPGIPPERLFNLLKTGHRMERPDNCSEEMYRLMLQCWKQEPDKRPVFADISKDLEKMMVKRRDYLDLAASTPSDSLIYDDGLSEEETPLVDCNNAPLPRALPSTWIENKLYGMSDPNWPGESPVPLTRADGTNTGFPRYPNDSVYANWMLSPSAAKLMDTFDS
Chain of PKN2 (human) (Q16513 whole entry, looked up): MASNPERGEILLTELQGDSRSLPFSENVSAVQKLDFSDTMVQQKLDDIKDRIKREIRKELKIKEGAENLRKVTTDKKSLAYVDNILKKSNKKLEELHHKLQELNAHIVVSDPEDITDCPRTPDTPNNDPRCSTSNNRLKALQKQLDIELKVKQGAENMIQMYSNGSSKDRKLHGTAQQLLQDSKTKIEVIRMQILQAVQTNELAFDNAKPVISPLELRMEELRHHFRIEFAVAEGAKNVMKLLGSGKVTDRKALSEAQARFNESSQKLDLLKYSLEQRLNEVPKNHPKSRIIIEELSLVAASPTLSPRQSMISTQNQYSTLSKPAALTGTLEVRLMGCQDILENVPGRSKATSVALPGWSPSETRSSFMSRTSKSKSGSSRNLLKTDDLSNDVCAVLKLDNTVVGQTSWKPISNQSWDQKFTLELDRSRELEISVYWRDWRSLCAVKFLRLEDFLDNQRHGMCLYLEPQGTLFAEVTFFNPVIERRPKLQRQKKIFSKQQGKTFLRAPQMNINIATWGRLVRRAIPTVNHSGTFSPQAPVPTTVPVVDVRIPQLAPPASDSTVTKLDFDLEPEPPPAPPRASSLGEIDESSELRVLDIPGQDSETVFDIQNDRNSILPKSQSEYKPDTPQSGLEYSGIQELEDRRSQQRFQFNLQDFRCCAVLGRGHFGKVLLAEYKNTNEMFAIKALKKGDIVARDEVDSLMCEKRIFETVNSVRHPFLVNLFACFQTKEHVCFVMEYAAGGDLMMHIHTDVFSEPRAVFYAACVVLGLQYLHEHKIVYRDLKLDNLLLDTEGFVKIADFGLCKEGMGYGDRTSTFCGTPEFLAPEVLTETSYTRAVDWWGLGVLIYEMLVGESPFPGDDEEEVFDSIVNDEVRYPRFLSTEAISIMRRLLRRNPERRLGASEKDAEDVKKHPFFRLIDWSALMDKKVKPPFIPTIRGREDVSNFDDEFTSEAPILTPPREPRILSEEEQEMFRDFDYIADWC
Chain of HIPK4 (human) (Q8NE63 whole entry, looked up): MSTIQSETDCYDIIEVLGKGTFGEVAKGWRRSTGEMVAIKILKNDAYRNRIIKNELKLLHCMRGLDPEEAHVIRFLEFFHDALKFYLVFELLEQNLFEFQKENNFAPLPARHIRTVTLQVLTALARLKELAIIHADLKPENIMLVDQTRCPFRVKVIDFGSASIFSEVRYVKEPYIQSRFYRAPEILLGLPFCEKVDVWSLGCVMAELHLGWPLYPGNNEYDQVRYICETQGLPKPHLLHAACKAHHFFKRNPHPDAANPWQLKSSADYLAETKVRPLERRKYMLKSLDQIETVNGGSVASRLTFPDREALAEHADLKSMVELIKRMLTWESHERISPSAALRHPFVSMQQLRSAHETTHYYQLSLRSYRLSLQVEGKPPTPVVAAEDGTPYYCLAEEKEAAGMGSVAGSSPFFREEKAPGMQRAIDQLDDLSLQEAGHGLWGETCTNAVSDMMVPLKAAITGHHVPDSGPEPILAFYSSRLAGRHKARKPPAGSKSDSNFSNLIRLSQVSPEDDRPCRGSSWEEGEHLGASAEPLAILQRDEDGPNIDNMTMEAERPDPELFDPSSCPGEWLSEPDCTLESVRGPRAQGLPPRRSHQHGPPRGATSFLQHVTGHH

| Compound | kinase still bound, per cent of control (LATS2 (human)) | kinase still bound, per cent of control (ULK3 (human)) | kinase still bound, per cent of control (CDK3 (human)) | kinase still bound, per cent of control (PRKCI (human)) | kinase still bound, per cent of control (GSK3A (human)) | kinase still bound, per cent of control (CAMK1G (human)) | kinase still bound, per cent of control (EPHB3 (human)) | kinase still bound, per cent of control (MKNK2 (human)) | kinase still bound, per cent of control (PRKG2 (human)) | kinase still bound, per cent of control [1] | kinase still bound, per cent of control (HIPK4 (human)) | kinase still bound, per cent of control (PLK3 (human)) | kinase still bound, per cent of control (RPS6KA5 KD2 (human)) | kinase still bound, per cent of control (SNRK (human)) | kinase still bound, per cent of control (IRAK1 (human)) | kinase still bound, per cent of control (CDKL1 (human)) | kinase still bound, per cent of control (STK32A (human)) | kinase still bound, per cent of control (RET (human)) | kinase still bound, per cent of control (SGK3 (human)) | kinase still bound, per cent of control (CAMK2G (human)) | further results |
| --- | --- | --- | --- | --- | --- | --- | --- | --- | --- | --- | --- | --- | --- | --- | --- | --- | --- | --- | --- | --- | --- |
| CC(=O)c1c(C)c2cnc(Nc3ccc(N4CCNCC4)cn3)nc2n(C2CCCC2)c1=O | 42% | 40% | 74% | 57% | 50% | 20% | 91% | 20% | 65% | 56% | 6% | 19% | 15% | 94% | 0.85% | 35% | 87% | 71% | 53% | 11% | kinase still bound, per cent of control (MET (human)): 36%; kinase still bound, per cent of control [2]: 41%; kinase still bound, per cent of control (CHEK1 (human)): 20%; kinase still bound, per cent of control (MAP3K6 (human)): 69%; kinase still bound, per cent of control (MAPK7 (human)): 0.65%; kinase still bound, per cent of control (CSNK1D (human)): 22%; kinase still bound, per cent of control (PLK1 (human)): 8.4%; kinase still bound, per cent of control (MYLK (human)): 20%; kinase still bound, per cent of control (CIT (human)): 3.2%; kinase still bound, per cent of control (MYLK2 (human)): 32%; kinase still bound, per cent of control (CPK1 (P.falciparum)): 46%; kinase still bound, per cent of control (PKN2 (human)): 48%; kinase still bound, per cent of control (PKMYT1 (human)): 77% |
| CCN(CCO)CCCOc1ccc2c(Nc3cc(CC(=O)Nc4cccc(F)c4)[nH]n3)ncnc2c1 | 52% | 69% | 95% | 96% | 100% | 73% | 100% | 6.4% | 92% | 34% | 4.5% | 89% | 100% | 100% | 63% | 84% | 100% | 0.25% | 100% | 100% | kinase still bound, per cent of control (MET (human)): 46%; kinase still bound, per cent of control (ROS1 (human)): 100%; kinase still bound, per cent of control (HCK (human)): 31%; kinase still bound, per cent of control (LYN (human)): 18%; kinase still bound, per cent of control [2]: 52%; kinase still bound, per cent of control (LIMK1 (human)): 100%; kinase still bound, per cent of control (PDGFRA (human)): 0%; kinase still bound, per cent of control (STK32B (human)): 100%; kinase still bound, per cent of control (MAPK7 (human)): 87%; kinase still bound, per cent of control (CSNK1D (human)): 71%; kinase still bound, per cent of control (PLK1 (human)): 100%; kinase still bound, per cent of control (MYLK (human)): 80%; kinase still bound, per cent of control (CIT (human)): 27%; kinase still bound, per cent of control (MYLK2 (human)): 87%; kinase still bound, per cent of control (CPK1 (P.falciparum)): 63%; kinase still bound, per cent of control (MAP3K5 (human)): 100%; kinase still bound, per cent of control (PKN2 (human)): 86%; kinase still bound, per cent of control (FLT4 (human)): 38%; kinase still bound, per cent of control (PKMYT1 (human)): 84% |
| COc1cc2c(Nc3ccc(NC(=O)c4ccccc4)cc3)ncnc2cc1OCCCN1CCOCC1 | 82% | 7.3% | 100% | 94% | 100% | 66% | 100% | 4.2% | 91% | 69% | 4.9% | 99% | 100% | 81% | 66% | 81% | 96% | 0.15% | 100% | 100% | kinase still bound, per cent of control (ROS1 (human)): 41%; kinase still bound, per cent of control (HCK (human)): 2%; kinase still bound, per cent of control (LYN (human)): 7.2%; kinase still bound, per cent of control (LIMK1 (human)): 100%; kinase still bound, per cent of control (PDGFRA (human)): 2%; kinase still bound, per cent of control (CHEK1 (human)): 100%; kinase still bound, per cent of control (MAP3K6 (human)): 100%; kinase still bound, per cent of control (STK32B (human)): 100%; kinase still bound, per cent of control (MAPK7 (human)): 89%; kinase still bound, per cent of control (CSNK1D (human)): 71%; kinase still bound, per cent of control (PLK1 (human)): 100%; kinase still bound, per cent of control (MYLK (human)): 92%; kinase still bound, per cent of control (CIT (human)): 59%; kinase still bound, per cent of control (MYLK2 (human)): 100%; kinase still bound, per cent of control (CPK1 (P.falciparum)): 47%; kinase still bound, per cent of control (MAP3K5 (human)): 100%; kinase still bound, per cent of control (PKN2 (human)): 100%; kinase still bound, per cent of control (FLT4 (human)): 83%; kinase still bound, per cent of control (PKMYT1 (human)): 89% |
